Here are results for twelve compounds from publication PMC6964273 (ACS Omega, 2019).

Series [1] deals with SK-MEL3 metastatic melanoma cancer cell line. Nature of the series: MTT cell viability assay on SK-MEL3. As to conditions: read-out: IC50 ± SD SK-MEL3. The format is cell-based, human.
In a further series the test system is SK-MEL3 cancer cell line. Nature of the series: DFO assay. The format is cell-based, human.
In series [2] the test system is RPMI-7951 metastatic melanoma cancer cell line. Nature of the series: MTT cell viability assay on RPMI-7951. Particulars: read-out: IC50 ± SD RPMI-7951. The format is cell-based, human.
Series [3] has as its system SK-MEL24 metastatic melanoma cancer cell line. Nature of the series: MTT cell viability assay on SK-MEL24. The series is classed as cell-based, human. As to conditions: read-out: IC50 ± SD SK-MEL24.
For a further series, the system named is C3PV cell line. Nature of the series: MTT cell viability assay on normal primary fibroblasts C3PV. The format is cell-based, human. Particulars: for IC50: 24 h, read-out: IC50 ± SD C3PV.
The subject of series [4] is SK-MEL24 cancer cell line. Nature of the series: DFO assay. The format is cell-based, human.
Series [5] deals with cervical cancer cell line (HeLa). Nature of the series: MTT cell viability assay on HeLa. The series is classed as cell-based, human.
For series [6], the system named is RPMI-7951 cancer cell line. Nature of the series: DFO assay. The series is classed as cell-based, human.
A short description of series [7]: Stability in the cell culture medium by TLC and HPLC. The series is classed as physicochemical. As to conditions: 48 h, room temperature.
Setting [8] is: Homo sapiens, SK-MEL3, 24 h, read-out: IC50 ± SD SK-MEL3 without DFO.
The mark [9] stands for this setting: Homo sapiens, SK-MEL3, read-out: IC50 ± SD SK-MEL3 with DFO.
Where [10] appears, read: Homo sapiens, SK-MEL-24, 24 h, read-out: IC50 ± SD SK-MEL24 without DFO.
Setting [11] is: Homo sapiens, SK-MEL-24, read-out: IC50 ± SD SK-MEL24 with DFO.
[12] abbreviates: Homo sapiens, read-out: IC50 ± SD HeLa.
Where [13] appears, read: Homo sapiens, RPMI-7951, 24 h, read-out: IC50 ± SD RPMI-7951 without DFO.
Setting [14] is: Homo sapiens, RPMI-7951, read-out: IC50 ± SD RPMI-7951 with DFO.
Where [15] appears, read: read-out: IC50 ± SD SK-MEL3 without DFO, without DFO, treatment time 24 hours.
Where [16] appears, read: read-out: IC50 ± SD SK-MEL24 without DFO, without DFO, treatment time 24 hours.
Where [17] appears, read: read-out: IC50 ± SD RPMI-7951 without DFO, without DFO, treatment time 24 hours.

Where two headings read alike, the source gives them in different places.

On to `C[C@@H]1CC[C@H]2[C@@H](C)C(=O)O[C@@H]3O[C@@]4(C)CC[C@@H]1[C@]32OO4` [Compound 1, Artemisinin], for which the IC50 is 3430 ± 860 nM in [1] (Homo sapiens, SK-MEL3, 24 h); 3430 ± 800 nM with SK-MEL3 cancer cell line (setting [8]); > 300000 nM in the series with SK-MEL3 cancer cell line (setting [9]); 3620 ± 990 nM in series [2] (Homo sapiens, RPMI-7951, 24 h); 8660 ± 4560 nM in series [3] (Homo sapiens, SK-MEL-24, 24 h); > 300000 nM in the series on C3PV cell line (Homo sapiens, C3PV). For the same compound, the concentration for half-maximal inhibition (IC50) in series [4] (setting [10]) stood at 8660 ± 900 nM; in series [4] (setting [11]), 27800 ± 3400 nM; in [5] (setting [12]), 1370 ± 590 nM; in [6] (setting [13]) it was 3620 ± 1600 nM; in series [6] (setting [14]), 29000 ± 2800 nM. Further, the “cytotoxicity on normal cell line C3PV (in words)” value (“cytotoxicity” for short) in the series with C3PV cell line (C3PV, MTT) is given as “not cytotoxic”.

Take `C[C@H]1[C@@H](O)O[C@@H]2O[C@@]3(C)CC[C@H]4[C@H](C)CC[C@@H]1[C@@]24OO3` [Compound 2, dihydroartemisinin]: the IC50 in [1] (Homo sapiens, SK-MEL3, 24 h) turned out to be 10400 ± 610 nM; in series [2] (Homo sapiens, RPMI-7951, 24 h) it was 910 ± 450 nM; in [3] (Homo sapiens, SK-MEL-24, 24 h) it was 3230 ± 1600 nM; in the series with C3PV cell line (Homo sapiens, C3PV), 680 ± 190 nM; in series [5] (setting [12]) it was 1320 ± 260 nM.

As to `C[C@H]1[C@H](OC(=O)CCC(=O)O)O[C@@H]2O[C@@]3(C)CC[C@H]4[C@H](C)CC[C@@H]1[C@@]24OO3` [Compound 3, artesunate], the half-maximal inhibitory concentration (IC50) in series [1] (Homo sapiens, SK-MEL3, 24 h) was > 300000 nM; with SK-MEL3 cancer cell line (setting [8]), > 300000 nM; in the series on SK-MEL3 cancer cell line (setting [9]), > 300000 nM; in [2] (Homo sapiens, RPMI-7951, 24 h), 1080 ± 560 nM; in series [3] (Homo sapiens, SK-MEL-24, 24 h), 820 ± 370 nM; in the series with C3PV cell line (Homo sapiens, C3PV), 1680 ± 440 nM. For the same compound, the IC50 is 820 ± 50 nM in series [4] (setting [10]); 900 ± 20 nM in series [4] (setting [11]); 1760 ± 380 nM in series [5] (setting [12]); 1080 ± 600 nM in [6] (setting [13]); 1090 ± 900 nM in [6] (setting [14]).

For the compound `COc1cc(/C=C/C(=O)CC(=O)/C=C/c2ccc(O)c(OC)c2)ccc1O` [Compound 5, curcumin], the IC50 in series [1] (Homo sapiens, SK-MEL3, 24 h) is 1690 ± 1240 nM; in [2] (Homo sapiens, RPMI-7951, 24 h), 3950 ± 90 nM; in series [3] (Homo sapiens, SK-MEL-24, 24 h), 3000 ± 1350 nM; with C3PV cell line (Homo sapiens, C3PV), > 300000 nM; in series [5] (setting [12]) it was 2120 ± 940 nM.

On to `C=CCc1ccc(O)c(OC)c1` [Compound 6, eugenol], for which the half-inhibitory concentration (IC50) came out at 1160 ± 320 nM in [1] (Homo sapiens, SK-MEL3, 24 h); 840 ± 340 nM in series [2] (Homo sapiens, RPMI-7951, 24 h); 2610 ± 340 nM in series [3] (Homo sapiens, SK-MEL-24, 24 h); 6880 ± 85 nM with C3PV cell line (Homo sapiens, C3PV); 4680 ± 1640 nM in [5] (setting [12]).

Take `C=C(C)[C@@H]1CC=C(CO)CC1` [Compound 7, perillyl alcohol]: the IC50 worked out at 1370 ± 590 nM in [1] (Homo sapiens, SK-MEL3, 24 h); 1710 ± 520 nM in series [2] (Homo sapiens, RPMI-7951, 24 h); 2690 ± 1300 nM in [3] (Homo sapiens, SK-MEL-24, 24 h); 3800 ± 280 nM with C3PV cell line (Homo sapiens, C3PV); 1630 ± 400 nM in [5] (setting [12]).

Take `OCCc1ccc(O)cc1` [Compound 8, tyrosol]: the IC50 in [1] (Homo sapiens, SK-MEL3, 24 h) worked out at 2530 ± 1410 nM; in [2] (Homo sapiens, RPMI-7951, 24 h), 10800 ± 1400 nM; in [3] (Homo sapiens, SK-MEL-24, 24 h), 1690 ± 150 nM; in the series on C3PV cell line (Homo sapiens, C3PV) it was 22700 ± 1830 nM; in series [5] (setting [12]) it was 1410 ± 790 nM.

For the compound `Cc1c(C)c2c(c(C)c1O)CC[C@@](C)(CCC[C@H](C)CCC[C@H](C)CCCC(C)C)O2` [Compound 9, α-tocopherol], the IC50 in [1] (Homo sapiens, SK-MEL3, 24 h) was 1220 ± 640 nM; in [2] (Homo sapiens, RPMI-7951, 24 h), 4110 ± 2100 nM; in [3] (Homo sapiens, SK-MEL-24, 24 h), 2350 ± 1050 nM; with C3PV cell line (Homo sapiens, C3PV), 74100 ± 5090 nM; in series [5] (setting [12]), 3030 ± 1500 nM.

Take `C=CCc1ccc(OC(=O)CCC(=O)OC2OC3OC4(C)CCC5C(C)CCC(C2C)C35OO4)c(OC)c1` (stereo not drawn) [Compound 11ii]: the concentration for half-maximal inhibition (IC50) stood at 4650 ± 1800 nM in [1] (SK-MEL3, MTT, 24 h); 1210 ± 630 nM in series [2] (RPMI-7951, MTT, 24 h); 5440 ± 2400 nM in series [3] (SK-MEL24, MTT, 24 h); 6790 ± 150 nM in the series with C3PV cell line (normal human primary fibroblast cell line, MTT); 1440 ± 1090 nM in series [5] (read-out: IC50 ± SD HeLa, MTT).

As to `C=C(C)C1CC=C(COC(=O)CCC(=O)OC2OC3OC4(C)CCC5C(C)CCC(C2C)C35OO4)CC1` (stereo not drawn) [Compound 11iii], the IC50 in [1] (SK-MEL3, MTT, 24 h) was 5240 ± 2290 nM; with SK-MEL3 cancer cell line (setting [15]) it was 5240 ± 200 nM; in [2] (RPMI-7951, MTT, 24 h), 2350 ± 1520 nM; in series [3] (SK-MEL24, MTT, 24 h), 60 ± 100 nM; in [4] (setting [16]), 60 ± 10 nM; in series [5] (read-out: IC50 ± SD HeLa, MTT), 1760 ± 470 nM. The 50% inhibitory concentration (IC50) in series [6] (setting [17]) amounted to 2350 ± 900 nM. For the same compound, the “cytotoxicity” value in the series on C3PV cell line (C3PV, MTT) was “not cytotoxic”.

`C[C@H]1[C@H](OC(=O)CCC(=O)Oc2ccc(CCO)cc2)O[C@@H]2O[C@@]3(C)CC[C@H]4[C@H](C)CC[C@@H]1[C@@]24OO3` [Compound 11iv]: in series [7], the “stability in the cell culture medium (ester bond; release of tyrosol)” value is listed as “No traces of tyrosol were observed”. The half-inhibitory concentration (IC50) is 2330 ± 1180 nM in series [1] (SK-MEL3, MTT, 24 h); 2330 ± 90 nM in the series on SK-MEL3 cancer cell line (setting [15]); 8340 ± 3060 nM in series [2] (RPMI-7951, MTT, 24 h); 2320 ± 1190 nM in [3] (SK-MEL24, MTT, 24 h); 2320 ± 900 nM in series [4] (setting [16]); > 300000 nM in series [5] (read-out: IC50 ± SD HeLa, MTT). For the same compound, the 50% inhibitory concentration (IC50) in series [6] (setting [17]) was 8340 ± 2700 nM. Also, the “cytotoxicity” value in the series with C3PV cell line (C3PV, MTT) is “not cytotoxic”. For the same compound, in series [5] (MTT), the “activity against HeLa (in words)” value is “inactive”.

Turning to `CC(=O)O[C@H]1C(=O)[C@@]2(C)[C@H]([C@H](OC(=O)c3ccccc3)[C@]3(O)C[C@H](OC(=O)[C@H](O)[C@@H](NC(=O)c4ccccc4)c4ccccc4)C(C)=C1C3(C)C)[C@]1(OC(C)=O)CO[C@@H]1C[C@@H]2O` [paclitaxel], the IC50 in series [1] (Homo sapiens, SK-MEL3, 24 h) turned out to be 4730 ± 830 nM; in series [2] (Homo sapiens, RPMI-7951, 24 h) it was 13 nM; in [3] (Homo sapiens, SK-MEL-24, 24 h), 1040 ± 310 nM; with C3PV cell line (Homo sapiens, C3PV), 78900 ± 790 nM; in series [5] (setting [12]), 6 ± 1.4 nM.
